Measured values as given in patent publication US20220323446A1 (Amgen Inc., priority 2021, published 2022).

Experiments:
P-gp [1] = target: T1, P-gp (Homo sapiens, UniProt P08183); assay: clinical; settings: plasma, 0.5 mg
Method: (§1) Blood samples for digoxin PK were collected predose and up to 144 hours post-digoxin dose. Samples were measured using validated high-performance liquid chromatography tandem mass spectrometry methods. PK parameters were estimated using non-compartmental methods.

P-gp [2] = target: T1, P-gp
Method: as §1

CYP3A4 = CYP3A4 (Homo sapiens, UniProt P08684); assay: Phase 1 interaction study, midazolam (CYP3A4 substrate) with sotorasib; settings: 2 mg midazolam with 960 mg sotorasib after 14 days daily sotorasib vs midazolam alone
[3] = 0.5 mg digoxin, 960 mg sotorasib
[4] = with a single dose of sotorasib vs digoxin alone

T1 sequence (P08183 whole entry): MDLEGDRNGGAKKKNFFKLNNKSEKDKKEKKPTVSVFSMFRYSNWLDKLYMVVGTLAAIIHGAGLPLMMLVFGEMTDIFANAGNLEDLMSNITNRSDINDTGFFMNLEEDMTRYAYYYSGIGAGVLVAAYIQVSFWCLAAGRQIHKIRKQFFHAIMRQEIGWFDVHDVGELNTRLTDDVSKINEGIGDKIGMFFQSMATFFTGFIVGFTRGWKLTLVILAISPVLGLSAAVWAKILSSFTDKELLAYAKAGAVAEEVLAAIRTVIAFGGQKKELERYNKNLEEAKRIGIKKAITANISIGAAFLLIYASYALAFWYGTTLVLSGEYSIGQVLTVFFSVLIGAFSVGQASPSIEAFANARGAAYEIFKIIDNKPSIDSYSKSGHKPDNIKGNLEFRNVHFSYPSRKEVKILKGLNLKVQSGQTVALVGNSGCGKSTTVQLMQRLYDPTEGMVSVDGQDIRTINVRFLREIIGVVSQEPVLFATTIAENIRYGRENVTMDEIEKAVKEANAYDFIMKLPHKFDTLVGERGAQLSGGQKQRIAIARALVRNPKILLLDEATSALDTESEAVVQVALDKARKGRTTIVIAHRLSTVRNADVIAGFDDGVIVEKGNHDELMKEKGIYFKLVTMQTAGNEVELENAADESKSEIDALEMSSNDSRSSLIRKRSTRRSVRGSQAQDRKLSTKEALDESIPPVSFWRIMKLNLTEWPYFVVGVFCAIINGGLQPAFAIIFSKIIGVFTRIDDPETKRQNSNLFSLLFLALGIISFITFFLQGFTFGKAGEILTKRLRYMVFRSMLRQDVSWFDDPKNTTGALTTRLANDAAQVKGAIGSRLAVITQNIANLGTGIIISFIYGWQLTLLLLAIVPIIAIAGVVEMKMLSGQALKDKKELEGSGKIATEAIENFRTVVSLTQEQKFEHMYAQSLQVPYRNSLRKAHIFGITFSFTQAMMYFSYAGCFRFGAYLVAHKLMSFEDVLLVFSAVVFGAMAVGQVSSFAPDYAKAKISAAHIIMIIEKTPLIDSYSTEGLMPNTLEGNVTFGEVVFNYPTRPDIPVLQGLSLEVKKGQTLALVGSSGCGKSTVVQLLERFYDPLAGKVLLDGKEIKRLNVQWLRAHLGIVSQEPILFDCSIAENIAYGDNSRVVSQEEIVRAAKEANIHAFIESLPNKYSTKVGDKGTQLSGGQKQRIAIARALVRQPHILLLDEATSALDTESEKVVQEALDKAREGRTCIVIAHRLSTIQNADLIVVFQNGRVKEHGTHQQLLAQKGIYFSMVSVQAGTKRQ
Chain of CYP3A4 (P08684 whole entry): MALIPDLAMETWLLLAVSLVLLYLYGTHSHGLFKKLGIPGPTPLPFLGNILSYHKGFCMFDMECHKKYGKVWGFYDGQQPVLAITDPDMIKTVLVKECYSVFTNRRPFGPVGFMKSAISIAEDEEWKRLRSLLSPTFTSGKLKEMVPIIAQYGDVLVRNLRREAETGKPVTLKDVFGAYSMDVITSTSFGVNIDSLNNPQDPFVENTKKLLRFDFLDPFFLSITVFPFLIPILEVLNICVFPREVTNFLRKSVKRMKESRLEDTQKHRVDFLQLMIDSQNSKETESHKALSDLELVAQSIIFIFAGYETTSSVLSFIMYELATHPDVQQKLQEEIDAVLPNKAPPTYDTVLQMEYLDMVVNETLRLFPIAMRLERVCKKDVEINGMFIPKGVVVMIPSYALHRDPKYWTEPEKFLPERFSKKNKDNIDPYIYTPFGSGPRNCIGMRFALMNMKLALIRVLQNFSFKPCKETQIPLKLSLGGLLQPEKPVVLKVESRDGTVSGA

SMILES | AUC(0-inf) (P-gp [1]) | Cmax (P-gp [1]) | Digoxin mean terminal half-life (t1/2) with sotorasib compared to alone (P-gp [2]; [3]) | Digoxin median time to maximal plasma concentration (tmax) with sotorasib compared to alone (P-gp [2]; [3]) | safety and tolerability (P-gp [2]; single doses of 0.5 mg digoxin alone or with 960 mg sotorasib) | increase of digoxin AUCinf (P-gp [2]; [4]) | increase of digoxin Cmax (P-gp [2]; [4]) | decrease of midazolam AUV (CYP3A4) | decrease of midazolam Cmax (CYP3A4)
C[C@H]1O[C@@H](O[C@H]2[C@@H](O)C[C@H](O[C@H]3[C@@H](O)C[C@H](O[C@H]4CC[C@@]5(C)[C@H](CC[C@@H]6[C@@H]5C[C@@H](O)[C@]5(C)[C@@H](C7=CC(=O)OC7)CC[C@]65O)C4)O[C@@H]3C)O[C@@H]2C)C[C@H](O)[C@@H]1O [digoxin] | 33.2 ng·h/mL | 1.9 ng/mL | similar | similar | safe and well tolerated | approximately 21% | ~91% | – | –
Cc1ncc2n1-c1ccc(Cl)cc1C(c1ccccc1F)=NC2 [midazolam] | – | – | – | – | – | – | – | 53% | 48%
